Data reported in patent publication US9573887B2, “Naphthalene derivative” (Daito Chemix Corporation, priority 2010, dated 2017).
Structures can show the parent of a compound that is named as a salt.

The molecules below were run against T1, Mouse VCP (Mus musculus, UniProt Q01853) (assay: ATPase activity of purified His-tagged VCP, [γ-32P]ATP, liberated phosphate by liquid scintillation). Conditions: compounds of Comparative Examples; determined in the same manner as the Examples.
T1 construct: histidine tag (N); made in house; host or cells: Sf-9 insect cells (baculovirus vector pVL1392)
Assay type: biochemical
Summary of the method: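 Liberated 32P-phosphate, extracted as a molybdate complex and counted by liquid scintillation, was the readout. Reactions used 500 ng Sf-9-expressed, Ni-purified His-VCP (mouse), 100 μM [γ-32P]ATP and varied test concentrations for 10 min at 37° C in HEPES pH 7.4 buffer with Mg2+ and DTT. IC50 derived by curve fitting.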

T1 sequence (Q01853 whole entry): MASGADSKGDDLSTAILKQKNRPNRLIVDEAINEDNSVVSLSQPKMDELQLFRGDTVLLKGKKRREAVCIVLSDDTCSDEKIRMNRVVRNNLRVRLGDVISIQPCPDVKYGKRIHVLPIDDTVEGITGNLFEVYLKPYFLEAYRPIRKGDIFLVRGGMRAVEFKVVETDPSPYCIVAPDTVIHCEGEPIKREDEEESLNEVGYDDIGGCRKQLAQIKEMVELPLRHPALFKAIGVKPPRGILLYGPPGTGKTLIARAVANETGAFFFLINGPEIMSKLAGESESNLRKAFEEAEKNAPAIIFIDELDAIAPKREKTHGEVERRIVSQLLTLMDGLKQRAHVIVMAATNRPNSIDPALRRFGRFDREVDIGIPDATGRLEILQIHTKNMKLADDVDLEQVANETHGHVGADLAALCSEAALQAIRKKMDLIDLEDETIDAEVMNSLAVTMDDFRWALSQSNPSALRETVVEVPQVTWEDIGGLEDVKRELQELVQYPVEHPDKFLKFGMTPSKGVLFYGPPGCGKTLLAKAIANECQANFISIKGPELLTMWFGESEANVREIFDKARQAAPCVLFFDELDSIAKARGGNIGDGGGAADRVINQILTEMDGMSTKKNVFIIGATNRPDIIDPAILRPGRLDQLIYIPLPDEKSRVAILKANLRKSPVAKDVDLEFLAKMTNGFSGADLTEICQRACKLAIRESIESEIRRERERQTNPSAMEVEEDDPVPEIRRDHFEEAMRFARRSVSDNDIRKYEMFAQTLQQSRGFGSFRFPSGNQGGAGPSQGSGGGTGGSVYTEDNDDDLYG

`Nc1c(/N=N/c2ccc(-c3ccccc3-c3ccccc3)nc2)cc(S(N)(=O)=O)c2ccccc12` [Example 14, sodium salt] and `Nc1ccc(/N=N/c2ccccc2)c2ccc(S(=O)(=O)O)cc12` [Example 2, sodium salt] cannot be ordered by IC50: greater than 10000 nM for the first, greater than 10000 nM for the second.

With `Nc1ccc(-c2cccc3c2sc2ccccc23)nc1` [Example 30, sodium salt] the IC50 was greater than 100000 nM.

Same assay, conditions: compounds of Examples; ATPase inhibitory activity; 500 ng VCP, 100 μM ATP, 37° C., 10 minutes

In order of falling IC50:
1. CCOc1ccncc1/N=N/c1cc(S(=O)(=O)O)c2ccccc2c1N [Example 13, 4-amino-3-(4-ethoxypyridine-3-ylazo)naphthalene-1-sulfonic acid sodium salt]  26600 nM
2. Cc1cc(C)cc(-c2ccc(C)cc2-c2ccc(/N=N/c3cc(S(=O)(=O)O)c4ccccc4c3N)cn2)c1 [Example 74, 4-amino-3-[6-(4,3′,5′-trimethylbiphenyl-2-yl)pyridine-3-ylazo]naphthalene-1-sulfonic acid sodium salt]  4000 nM
3. N#Cc1cccc(/N=N/c2cc(S(=O)(=O)O)c3ccccc3c2N)c1 [Example 106, 4-amino-3-(3-cyanophenylazo)naphthalene-1-sulfonic acid sodium salt]  2260 nM
4. Nc1c(/N=N/c2cccnc2)cc(S(=O)(=O)O)c2ccccc12 [Example 1, 4-amino-3-(pyridine-3-ylazo)naphthalene-1-sulfonic acid sodium salt]  1580 nM
5. CCCCOc1c(OCC)cc(C=O)cc1-c1ccc(/N=N/c2cc(S(=O)(=O)O)c3ccccc3c2N)cn1 [Example 148, 4-amino-3-[6-(2-butoxy-3-ethoxy-5-formylphenyl)pyridine-3-ylazo]naphthalene-1-sulfonic acid sodium salt]  1560 nM
6. Nc1c(/N=N/c2ccc(-c3cccc4c3Sc3ccccc3S4)nc2)cc(S(=O)(=O)O)c2ccccc12 [Example 76, 4-amino-3-(6-thianthrene-1-ylpyridine-3-ylazo)naphthalene-1-sulfonic acid sodium salt]  1410 nM
7. Cc1cc(-c2cccnc2)ncc1/N=N/c1cc(S(=O)(=O)O)c2ccccc2c1N [Example 53, 4-amino-3-(4-methyl-[2,3′]bipyridinyl-5-ylazo)naphthalene-1-sulfonic acid sodium salt]  1150 nM
8. Cc1cc(/N=N/c2cc(S(=O)(=O)O)c3ccccc3c2N)cnc1-c1cccc2c1sc1ccccc12 [Example 85, 4-amino-3-(6-dibenzothiophene-4-yl-5-methylpyridine-3-ylazo)naphthalene-1-sulfonic acid sodium salt]  1050 nM
9. Cc1ccc(/N=N/c2cc(S(=O)(=O)O)c3ccccc3c2N)cc1 [Example 122, 4-amino-3-p-tolylazonaphthalene-1-sulfonic acid sodium salt]  849 nM
10. Nc1c(/N=N/c2ccc(-c3cccc(C(F)(F)F)c3)nc2)cc(S(=O)(=O)O)c2ccccc12 [Example 37, 4-amino-3-[6-(3-trifluoromethylphenyl)pyridine-3-ylazo]naphthalene-1-sulfonic acid sodium salt]  726 nM
11. Nc1c(/N=N/c2ccc(OCc3cccnc3)cc2)cc(S(=O)(=O)O)c2ccccc12 [Example 135, 4-amino-3-[4-(pyridine-3-ylmethoxy)phenylazo]naphthalene-1-sulfonic acid sodium salt]  716 nM
12. Nc1c(/N=N/c2ccc(-c3ccc(C(=O)c4ccccc4)cc3)nc2)cc(S(=O)(=O)O)c2ccccc12 [Example 47, 4-amino-3-[6-(4-benzoylphenyl)pyridine-3-ylazo]naphthalene-1-sulfonic acid sodium salt]  589 nM
13. Cc1ccc2cccc(-c3ccc(/N=N/c4cc(S(=O)(=O)O)c5ccccc5c4N)cn3)c2n1 [Example 84, 4-amino-3-[6-(2-methylquinoline-8-yl)pyridine-3-ylazo]naphthalene-1-sulfonic acid sodium salt]  567 nM
14. Nc1c(/N=N/c2cccc(OCc3cccnc3)c2)cc(S(=O)(=O)O)c2ccccc12 [Example 138, 4-amino-3-[3-(pyridine-3-ylmethoxy)phenylazo]naphthalene-1-sulfonic acid sodium salt]  516 nM
15. Nc1c(/N=N/c2cccnc2-c2ccccc2)cc(S(=O)(=O)O)c2ccccc12 [Example 50, 4-amino-3-(2-phenylpyridine-3-ylazo)naphthalene-1-sulfonic acid sodium salt]  468 nM
16. Nc1c(/N=N/c2ccc(OCC3CCCO3)nc2)cc(S(=O)(=O)O)c2ccccc12 (stereo not drawn) [Example 4, 4-amino-3-[6-(tetrahydrofuran-2-ylmethoxy)pyridine-3-ylazo]-1-naphthalenesulfonic acid sodium salt]  407 nM
17. Cc1ccc(F)c(-c2ccc(/N=N/c3cc(S(=O)(=O)O)c4ccccc4c3N)cn2)c1 [Example 59, 4-amino-3-[6-(2-fluoro-5-methylphenyl)pyridine-3-ylazo]naphthalene-1-sulfonic acid sodium salt]  380 nM
18. Cc1cccc(-c2ccc(/N=N/c3cc(S(=O)(=O)O)c4ccccc4c3N)cc2)c1 [Example 126, 4-amino-3-(3′-methylbiphenyl-4-ylazo)naphthalene-1-sulfonic acid sodium salt]  343 nM
19. Cc1cc(F)ccc1-c1ccc(/N=N/c2cc(S(=O)(=O)O)c3ccccc3c2N)cn1 [Example 49, 4-amino-3-[6-(4-fluoro-2-methylphenyl)pyridine-3-ylazo]naphthalene-1-sulfonic acid sodium salt]  330 nM
20. Nc1c(/N=N/c2cnc3ccccc3c2)cc(S(=O)(=O)O)c2ccccc12 [Example 145, 4-amino-3-(quinoline-3-ylazo)naphthalene-1-sulfonic acid sodium salt]  295 nM
21. Nc1c(/N=N/c2ccc(-c3ccccc3Oc3ccccc3)nc2)cc(S(=O)(=O)O)c2ccccc12 [Example 29, 4-amino-3-[6-(2-phenoxyphenyl)pyridine-3-ylazo]naphthalene-1-sulfonic acid sodium salt]  287 nM
22. Nc1c(/N=N/c2ccc(OCc3cccnc3)nc2)cc(S(=O)(=O)O)c2ccccc12 [Example 3, 3-(2-pyridinomethoxy-5-pyridinoazo)-4-amino-1-naphthalenesulfonic acid sodium salt]  281 nM
23. Nc1c(/N=N/c2ccc(-c3ncco3)nc2)cc(S(=O)(=O)O)c2ccccc12 [Example 36, 4-amino-3-(6-oxazole-2-ylpyridine-3-ylazo)naphthalene-1-sulfonic acid sodium salt]  279 nM
24. Nc1c(/N=N/c2ccc(-c3cccnc3)cc2)cc(S(=O)(=O)O)c2ccccc12 [Example 123, 4-amino-3-(4-pyridine-3-ylphenylazo)-1-naphthalenesulfonic acid sodium salt]  274 nM
25. Nc1c(/N=N/c2ccc(Br)cc2Br)cc(S(=O)(=O)O)c2ccccc12 [Example 113, 4-amino-3-(2,4-dibromophenylazo)naphthalene-1-sulfonic acid sodium salt]  266 nM
26. CCCOc1cccc(F)c1-c1ccc(/N=N/c2cc(S(=O)(=O)O)c3ccccc3c2N)cn1 [Example 56, 4-amino-3-[6-(2-fluoro-6-propoxyphenyl)pyridine-3-ylazo]naphthalene-1-sulfonic acid sodium salt]  246 nM
27. Nc1c(/N=N/c2ccc(C(=O)c3ccccc3)cc2)cc(S(=O)(=O)O)c2ccccc12 [Example 131, 4-amino-3-(4-benzoylphenylazo)naphthalene-1-sulfonic acid sodium salt]  242 nM
28. Cc1cc(C=O)c(OC(C)C)c(-c2ccc(/N=N/c3cc(S(=O)(=O)O)c4ccccc4c3N)cn2)c1 [Example 91, 4-amino-3-[6-(3-formyl-2-isopropoxy-5-methylphenyl)pyridine-3-ylazo]naphthalene-1-sulfonic acid sodium salt]  212 nM
29. Cc1cc(F)ccc1-c1ccc(/N=N/c2cc(S(=O)(=O)O)c3ccccc3c2N)cc1F [Example 144, 4-amino-3-(2,4′-difluoro-2′-methyl-diphenyl-4-ylazo)naphthalene-1-sulfonic acid sodium salt]  199 nM
30. Nc1c(/N=N/c2ccc(-c3ccccc3Cl)nc2)cc(S(=O)(=O)O)c2ccccc12 [Example 22, 4-amino-3-[6-(2-chlorophenyl)pyridine-3-ylazo]naphthalene-1-sulfonic acid sodium salt]  197 nM
31. Nc1c(/N=N/c2ccc(-c3ccccc3C(F)(F)F)nc2)cc(S(=O)(=O)O)c2ccccc12 [Example 20, 4-amino-3-[6-(2-trifluoromethylphenyl)pyridine-3-ylazo]naphthalene-1-sulfonic acid sodium salt]  170 nM
32. CCCOc1ccc(F)cc1-c1ccc(/N=N/c2cc(S(=O)(=O)O)c3ccccc3c2N)cn1 [Example 55, 4-amino-3-[6-(5-fluoro-2-propoxyphenyl)pyridine-3-ylazo]naphthalene-1-sulfonic acid sodium salt]  139 nM
33. Nc1c(/N=N/c2ccc(OCc3ccncc3)cc2)cc(S(=O)(=O)O)c2ccccc12 [Example 132, 4-amino-3-[4-(pyridine-4-ylmethoxy)phenylazo]naphthalene-1-sulfonic acid sodium salt]  135 nM
34. Nc1c(/N=N/c2c(Br)cc(-c3cccnc3)cc2Br)cc(S(=O)(=O)O)c2ccccc12 [Example 128, 4-amino-3-(2,6-dibromo-4-pyridine-3-ylphenylazo)naphthalene-1-sulfonic acid sodium salt]  128 nM
35. CCCOc1ccccc1-c1ccc(/N=N/c2cc(S(=O)(=O)O)c3ccccc3c2N)cn1 [Example 48, 4-amino-3-[6-(2-propoxyphenyl)pyridine-3-ylazo]naphthalene-1-sulfonic acid sodium salt]  127 nM
36. Nc1c(/N=N/c2c(Br)cc(Br)cc2Br)cc(S(=O)(=O)O)c2ccccc12 [Example 114, 4-amino-3-(2,4,6-tribromophenylazo)naphthalene-1-sulfonic acid sodium salt]  99 nM
